TGI and GI50 data for 17 molecules are collected here from PubChem BioAssay (NCI).

“And” between values parts separate entries of the source, which are not always exact repeats. Equal entries are not always repeated.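 Values below derive from 48-hour exposures of cells grown in 96-well plates, with endpoints linearly interpolated between the two concentrations bracketing the appropriate inhibition level. Abbreviation: GI50, concentration required for 50% inhibition of growth. Definition used: TGI = concentration required for complete inhibition of growth.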

The first experiment has as its system SF-539 CNS. Description: inhibition of tumour cell growth, NCI panel, 48 h.
As for `Cc1cccc(C)c1N1C(=O)C(=O)C(c2nc3ccccc3s2)C(=Nc2cccc3c(=O)[nH][nH]c(=O)c23)C1=O` (configuration not stated), the TGI was above 100 µM.
As to `[2H]c1nc(=Nc2cc(NC(=O)C=C)c(N(C)CCN(C)C)cc2OC)[nH]c(-c2cn(C([2H])([2H])[2H])c3ccccc23)c1[2H]`, the GI50 is 1.47 µM and the TGI amounted to 2.96 µM.
As for `COc1cc2nc(-c3ccc(C(F)(F)F)cc3)cc(OCCCN3CCCC3)c2cc1OC`, the GI50 was 2.56 µM and the TGI is 12.6 µM.
As to `COc1ccc(C(=O)c2nc3ccccc3n2CC(=O)c2ccc(Cl)cc2)cc1`, the GI50 was 2.85 µM and the TGI is above 30.5 µM.
`COc1cc(C2c3cc4c(cc3[C@@H](Nc3ccc5c(c3)OCCO5)C3COC(=O)[C@H]23)OCO4)cc(OC)c1O` (some centres not stated) came in with a TGI of 5.07 µM.
As for `Cn1c(=O)nc2n(-c3ccc(Cl)c(C(F)(F)F)c3)c3ccccc3nc-2c1=O`, the TGI is above 79.9 µM.
Turning to `OCc1ccc(N2CCOCC2)cc1Cl`, the GI50 is above 100 µM and the TGI was above 100 µM.
Molecule `Cc1nc(-c2cccnc2)sc1C(=O)/C=C/c1cccc([N+](=O)[O-])c1` came in with a TGI above 100 µM.

For the next experiment, the system named is SNB-75 CNS. Description: inhibition of tumour cell growth, NCI panel, 48 h.
`COc1ccc(F)c(F)c1C(=O)c1cnc(NC2CCN(S(C)(=O)=O)CC2)nc1N`: the GI50 was 1.26 µM and 1.09 µM; the TGI was 3.62 µM and 2.73 µM.
`CC1(C)CC(=O)C(CC2C(=O)c3ccccc3C2=O)C(=O)C1` displayed a TGI above 100 µM.
As for `Nc1cc(-c2ccc(Cl)cc2)nn1-c1nnc(/C=C/c2ccco2)c(=O)[nH]1`, the GI50 is 12.9 µM and the TGI was 41.4 µM.
In turn, `Cc1c(C)c(CC(=O)N2CC2)c(C)c(C)c1CC(=O)N1CC1` yielded a TGI of 50.8 µM.
For `Cc1ccc(C)c(N2C(=O)C(=O)C(c3nc4ccccc4s3)C(=Nc3cccc4c(=O)[nH][nH]c(=O)c34)C2=O)c1` (configuration not stated), the TGI is above 100 µM.
In turn, `CCCCCCCCCCCCCCCCCCOCC(COCCOCC[N+]1(CCCCCC(=O)[O-])CCCC1)Oc1ncccn1` (configuration not stated) registered a TGI of 12.8 µM.
For `CCOc1ccc(Nc2c3ccccc3nc3ccccc23)cc1`, the GI50 is 0.309 µM and 0.25 µM; the TGI is 3.39 µM and 1.52 µM.
The molecule `CC(C)(C)NCC(COc1ccc([N+](=O)[O-])cc1)OP(c1ccccc1)c1ccccc1` (configuration not stated) had a TGI above 100 µM.
As to `CCNCCNc1cc(-c2ccc(C#N)cc2)c(C#N)c2nc3ccccc3n12`, the GI50 is 1.66 µM and the TGI is 4.24 µM.
For the molecule `Cc1cccc(C)c1N1C(=O)C(=O)C(c2nc3ccccc3s2)C(=Nc2cccc3c(=O)[nH][nH]c(=O)c23)C1=O` (configuration not stated), the TGI is above 100 µM.
Regarding `[2H]c1nc(=Nc2cc(NC(=O)C=C)c(N(C)CCN(C)C)cc2OC)[nH]c(-c2cn(C([2H])([2H])[2H])c3ccccc23)c1[2H]`, the GI50 was 10.8 µM and the TGI turned out to be 24.8 µM.
For `COc1cc2nc(-c3ccc(C(F)(F)F)cc3)cc(OCCCN3CCCC3)c2cc1OC`, the GI50 was 0.207 µM and the TGI was 4.49 µM.
As for `COc1ccc(C(=O)c2nc3ccccc3n2CC(=O)c2ccc(Cl)cc2)cc1`, the GI50 was 2.75 µM and the TGI is above 100 µM.
The molecule `COc1cc(C2c3cc4c(cc3[C@@H](Nc3ccc5c(c3)OCCO5)C3COC(=O)[C@H]23)OCO4)cc(OC)c1O` (some centres not stated) registered a TGI of 5.59 µM.
The molecule `Cn1c(=O)nc2n(-c3ccc(Cl)c(C(F)(F)F)c3)c3ccccc3nc-2c1=O` yielded a TGI above 100 µM.
For `OCc1ccc(N2CCOCC2)cc1Cl`, the GI50 is above 100 µM and the TGI is above 100 µM.
With `Cc1nc(-c2cccnc2)sc1C(=O)/C=C/c1cccc([N+](=O)[O-])c1`, the TGI was above 100 µM.

For another experiment, the system named is UACC-257 melanoma. Description: inhibition of tumour cell growth, NCI panel, 48 h.
Take `COc1ccc(F)c(F)c1C(=O)c1cnc(NC2CCN(S(C)(=O)=O)CC2)nc1N`: the GI50 is 1.44 µM and 1.61 µM; the TGI was 6.38 µM and 8.94 µM.
On to `CC1(C)CC(=O)C(CC2C(=O)c3ccccc3C2=O)C(=O)C1`, for which the TGI was above 100 µM.
For `Nc1cc(-c2ccc(Cl)cc2)nn1-c1nnc(/C=C/c2ccco2)c(=O)[nH]1`, the GI50 is 6.55 µM and the TGI came out at 47.3 µM.
With `Cc1c(C)c(CC(=O)N2CC2)c(C)c(C)c1CC(=O)N1CC1`, the TGI was determined as 50 µM.
With `Cc1ccc(C)c(N2C(=O)C(=O)C(c3nc4ccccc4s3)C(=Nc3cccc4c(=O)[nH][nH]c(=O)c34)C2=O)c1` (configuration not stated), the TGI is above 100 µM.
Molecule `CCCCCCCCCCCCCCCCCCOCC(COCCOCC[N+]1(CCCCCC(=O)[O-])CCCC1)Oc1ncccn1` (configuration not stated) displayed a TGI of 22.7 µM.
As to `CCOc1ccc(Nc2c3ccccc3nc3ccccc23)cc1`, the GI50 is 0.552 µM and 0.888 µM; the TGI was 2.22 µM and 6.32 µM.
`CC(C)(C)NCC(COc1ccc([N+](=O)[O-])cc1)OP(c1ccccc1)c1ccccc1` (configuration not stated) had a TGI above 100 µM.
As for `CCNCCNc1cc(-c2ccc(C#N)cc2)c(C#N)c2nc3ccccc3n12`, the GI50 is 3.72 µM and the TGI is 7.14 µM.
On to `Cc1cccc(C)c1N1C(=O)C(=O)C(c2nc3ccccc3s2)C(=Nc2cccc3c(=O)[nH][nH]c(=O)c23)C1=O` (configuration not stated), for which the TGI is above 100 µM.
As to `[2H]c1nc(=Nc2cc(NC(=O)C=C)c(N(C)CCN(C)C)cc2OC)[nH]c(-c2cn(C([2H])([2H])[2H])c3ccccc23)c1[2H]`, the GI50 is 2.19 µM and the TGI was found to be 3.88 µM.
Turning to `COc1cc2nc(-c3ccc(C(F)(F)F)cc3)cc(OCCCN3CCCC3)c2cc1OC`, the GI50 was 1.37 µM and the TGI was determined as 8.51 µM.
On the same counts, the results for `COc1ccc(C(=O)c2nc3ccccc3n2CC(=O)c2ccc(Cl)cc2)cc1` are above 23.6 µM and above 100 µM.
For `COc1cc(C2c3cc4c(cc3[C@@H](Nc3ccc5c(c3)OCCO5)C3COC(=O)[C@H]23)OCO4)cc(OC)c1O` (some centres not stated), the TGI was above 32.3 µM.
`Cn1c(=O)nc2n(-c3ccc(Cl)c(C(F)(F)F)c3)c3ccccc3nc-2c1=O` returned a TGI of 36.8 µM.
Consider `OCc1ccc(N2CCOCC2)cc1Cl`, for which the GI50 was 7.2 µM and the TGI came out at 24.1 µM.
`Cc1nc(-c2cccnc2)sc1C(=O)/C=C/c1cccc([N+](=O)[O-])c1`: the TGI was above 100 µM.
